We go through 1 compound from PMC8695591 (RSC Advances, 2021).

pIC50: −log10 of the molar value.

The target of the experiment is cathepsin B (Homo sapiens, UniProt P07858). Put plainly: Cathepsin B inhibition assay. Type of experiment: biochemical.

`CC(=O)N[C@@H](CC(C)C)C(=O)N[C@@H](CC(C)C)C(=O)N[C@H](C=O)CCCNC(=N)N` [Leupeptin] showed a pIC50 of 5.12.

Usually pIC50 stands for the negative decadic logarithm of the IC50, by convention in mol/L. Read a high pIC50 as a small IC50.
